Experimental data: patent US20240376091A1, “THIADIAZOLEAMIDE DERIVATIVES AND THEIR APPLICATIONS” (ZHEJIANG UNIVERSITY, priority 2021, published 2024)

What was measured:
AR-LBD protein = molecular target: T1, AR-LBD protein (Homo sapiens, UniProt P10275); assay: Biolayer interferometry (BLI) direct interaction; type: binding; conditions: A-1 2.06-500 μM, biotinylated AR-LBD
T1 construct: The biotinylated AR-LBD protein was dissolved in the buffer
T1 sequence (P10275 669-900 limits assumed): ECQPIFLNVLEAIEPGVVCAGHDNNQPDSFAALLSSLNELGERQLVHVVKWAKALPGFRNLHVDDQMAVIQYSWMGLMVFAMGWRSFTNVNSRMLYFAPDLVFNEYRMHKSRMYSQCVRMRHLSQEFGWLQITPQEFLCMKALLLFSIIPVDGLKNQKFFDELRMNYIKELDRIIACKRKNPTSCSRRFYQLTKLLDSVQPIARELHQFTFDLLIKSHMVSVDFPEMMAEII
Procedure: Detection principles: The BLI technique can detect the interactions by monitoring the change of the interference spectrum in the sensor surface. BLI can quantitatively determine the binding and dissociation processes of a ligand to the target loaded sensor, by analyzing changes in the interference spectrum. Therefore, the direct interaction between ligand and target protein can be quantitatively detected.
Methods: The biotinylated AR-LBD protein was dissolved in the buffer of phosphate-buffered saline with 1% dimethyl sulfoxide. 200 μL of AR-LBD protein in the buffer was loaded onto sensors and equilibrated for 300 seconds. The kinetics of association between AR-LBD and A-1 were determined by soaking the AR-LBD loaded sensors into wells containing different concentrations of A-1 for 300 seconds, followed by soaking the sensors in the buffer for 180 seconds allow for dissociation. Finally, the ForteBio data analysis software was applied to calculate the kinetic binding constants (Ka, Kd, KD).

FL-AR^WT = molecular target: T2, FL-AR^WT (Homo sapiens, UniProt P10275); assay: Luciferase reporter assay in PC3 cells, wild type AR; type: cell-based; conditions: read-out: IC50 toward FL-AR^WT
T2 construct: toward full-length (FL)-AR^WT and FL-AR^V684A; expressed in transfected cells; host or cells: PC3
T2 sequence (P10275 1-920): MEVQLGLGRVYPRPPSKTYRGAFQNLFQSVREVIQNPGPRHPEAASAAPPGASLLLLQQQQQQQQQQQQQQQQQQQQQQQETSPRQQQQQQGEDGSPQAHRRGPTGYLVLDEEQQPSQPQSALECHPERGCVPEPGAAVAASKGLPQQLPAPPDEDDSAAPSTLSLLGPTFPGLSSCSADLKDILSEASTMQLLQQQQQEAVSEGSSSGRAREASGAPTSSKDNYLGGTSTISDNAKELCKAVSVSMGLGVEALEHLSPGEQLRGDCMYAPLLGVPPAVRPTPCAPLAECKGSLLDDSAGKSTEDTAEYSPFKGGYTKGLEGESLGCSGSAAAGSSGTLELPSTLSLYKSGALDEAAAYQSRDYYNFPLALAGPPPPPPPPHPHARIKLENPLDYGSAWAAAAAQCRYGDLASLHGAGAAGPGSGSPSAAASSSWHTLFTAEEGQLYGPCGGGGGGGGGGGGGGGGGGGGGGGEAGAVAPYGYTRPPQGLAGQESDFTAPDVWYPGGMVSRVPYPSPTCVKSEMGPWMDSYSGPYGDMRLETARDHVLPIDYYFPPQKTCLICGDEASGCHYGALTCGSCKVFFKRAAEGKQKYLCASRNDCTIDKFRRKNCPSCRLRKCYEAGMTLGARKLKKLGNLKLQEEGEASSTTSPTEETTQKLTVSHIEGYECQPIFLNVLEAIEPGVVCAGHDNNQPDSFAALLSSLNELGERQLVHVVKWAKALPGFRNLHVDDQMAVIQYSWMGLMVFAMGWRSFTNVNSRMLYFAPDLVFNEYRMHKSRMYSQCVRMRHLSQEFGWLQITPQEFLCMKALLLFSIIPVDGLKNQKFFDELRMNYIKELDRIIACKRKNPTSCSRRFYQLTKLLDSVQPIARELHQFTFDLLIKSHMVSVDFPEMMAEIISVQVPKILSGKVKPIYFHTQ
Procedure: Detection principles: A reporter system for detecting the activities of firefly luciferase. To quantitatively detect the interaction between transcription factors and target promoters, the fluorescent intensities are detected to quantitatively evaluate the activities of firefly luciferase.
Methods: PC3 cells (no endogenous AR) treated with DMEM media supplemented with 5% CSS for 48 hours. Then, the PC3 cells (1.2×10^4/well) were seeded into 96-well plates. After 16 hours, the PC3 cells were transfected with 20 ng/well plasmid and incubated for 20 min at room temperature. After 1 day incubation, the media in the wells was replaced, followed by the addition of various concentrations of compounds. After 48 hours, the culture medium was discarded and the cells were washed with 100 μL PBS, followed by addition of 30 μL 1×PLB and the 96-well plates was shaken on a shaker for 20 min to ensure complete lysis of the cells. Then, the cell lysis supernatant (20 μL/well) was transferred to a white opaque 96-well, and addition of 30 μL Luciferase Assay Reagent II to each well. Then, the fluorescent intensities of firefly luciferase were evaluated. Afterwards, 30 μL Stop&Glo Reagant was added to the wells, and the fluorescent intensities of […] evaluated.

LNCaP xenograft = conditions: mouse, in vivo
Procedure: Methods: LNCaP cells were injected to the Male CB17 SCID mice (6-8 weeks old). Once tumor size reached target value, the mice were randomized into three groups with 6-8 mice per group. […] The mice weight and tumor volume were periodically recorded. Finally, the tumors were harvested.

## CC(=O)Cc1nsc(NC(=O)c2cc(-c3cccc(C(F)(F)F)c3)oc2C)n1 [Compound A-1, 2-Methyl-N-(3-(2-oxopropyl)-1,2,4-thiadiazol-5-yl)-5-(3-(trifluoromethyl)phenyl)furan-3-carboxamide]
AR-LBD protein
  Kd: 143 µM
FL-AR^WT
  IC50: 1.84 µM
LNCaP xenograft
  mortality: no mortality
